Row | melting point [°C] | Compound
1 | 77 to 79 | O=C(Cc1ccccc1Cl)NCCCO
2 | 87 to 89 | O=C(O)c1ccccc1N1CCCC1
3 | 139 to 141 | CC(=O)NCc1ccc(C(=O)CCl)cc1
4 | 127 to 129 | O=C(NO)C1CC1
5 | 205 to 207 | Cc1cc(O)cc(C(=O)O)c1
6 | 250 to 252 | O=C(O)c1cnc2c(c1)c(C1CC1)nn2-c1ccccc1
7 | 223 to 225 | Cc1ccn2c(N)c(-c3cccs3)nc2c1
8 | 250 to 252 | Sc1ncc(-c2ccccc2)n1-c1ccccc1
9 | 194 to 196 | Nc1cc(F)c(Oc2ccc(F)cc2)cc1C(=O)O
10 | 286 to 288 | Cc1cc(C)c2c(Cl)c(C(=O)O)sc2c1
11 | 111 to 113 | CC(C)(C(=O)O)c1ccccc1Cl
12 | 167 to 169 | O=C(O)Cc1csc(NC(=O)c2ccccc2I)n1
13 | 149 to 151 | NC(=NO)c1cccnc1N1CCCCC1
14 | 181 to 183 | CS(=O)(=O)Nc1ccc(N)cc1Cl
15 | 296 to 300 | NC1=C(c2nc3ccccc3[nH]2)C(=O)CN1N
16 | 72 to 74 | Nc1cc(Br)cnc1-n1cccn1
17 | 145 to 147 | Cc1cc(N)c(C)cn1
18 | 125 to 127 | CCc1ncc(N)cn1
19 | 133 to 135 | Clc1ccc2nc(-c3ccccn3)[nH]c2c1
20 | 139 to 141 | COc1ccc(C(=O)O)nn1
21 | 191 to 193 | CCc1cc(C(=O)O)n[nH]1
22 | 97 to 99 | Cc1ccnc(Cl)c1O
23 | 134 to 136 | O=C(O)CCCOc1ccc(S(=O)(=O)Cl)cc1Cl

Row | melting point [°C] | Compound
24 | 156 to 158 | O=C(O)C1CCN(S(=O)(=O)c2ccccc2)CC1
25 | 100 to 102 | COc1ccc(Oc2ccc(CO)cc2)cc1
26 | 112 to 114 | Cc1cc(N)ccc1OCCN1CCCC1
27 | 57 to 59 | Cc1cccc(-c2nnc(CCl)o2)c1
28 | 78 to 80 | CC1(NC(=O)c2ccnc(F)c2)CCCC1
29 | 160 to 162 | Cc1ccc(-n2cc(C(=O)O)nn2)cc1
30 | 215 to 217 | Cc1sc2nc(C(C)Cl)[nH]c(=O)c2c1C (centres undefined)
31 | 92 to 102 | O=C(O)CCSc1ccccc1Cl
32 | 117 to 119 | O=Cc1cc(Br)c2c(c1)OCO2
33 | 40 to 42 | Clc1ncc(-c2ccccc2)s1
34 | 121 to 123 | Cn1c(S)nnc1-c1ccncc1
35 | 138 to 140 | Nc1ccnn1-c1ccc([N+](=O)[O-])cc1
36 | 98 to 100 | Nc1cnn(CC(=O)NCCO)c1
37 | 301 to 303 | O=C(NC1CC1)c1cc(S)nc2ccccc12
38 | 204 to 206 | NC(=O)C1CCC(O)CC1 (centres undefined)
39 | 77 to 79 | Cc1cc(Br)ccc1NC(=O)CCN
40 | 86 to 88 | CN(C(=O)CC#N)c1ccccc1
41 | 184 to 186 | CN1CCN(C2=c3ccccc3=Nc3ccc(Cl)cc3N2)CC1
42 | 169 to 171 | CCOc1ccc(Nc2nc3ccccc3s2)cc1
43 | 84 to 86 | COC(=O)c1cccc(N)c1O
44 | 128 to 130 | COC(=O)c1ccc(C(=O)OC)c(NC(=O)C(C)Cl)c1 (centres undefined)
45 | 89 to 91 | Cc1cc(-c2csc(N)n2)c(C)o1
46 | 103 to 105 | Nc1cc(-c2cccc(F)c2)no1

Row | melting point [°C] | Compound
47 | 95 to 97 | COC(=O)c1sc(C)c(Br)c1O
48 | 61 to 63 | Cc1sc2nc(CN3CCCCC3)nc(Cl)c2c1C
49 | 251 to 253 | CC(=O)Oc1cccc2ccc(O)nc12
50 | 67 to 69 | C#CC1CCCN(C(=O)OC(C)(C)C)C1 (centres undefined)
51 | 169 to 171 | CC(C)(F)c1nc(N)nc(Cl)n1
52 | 144 to 148 | COc1cn(-c2ccccc2)nc1C(=O)O
53 | 176 to 178 | CC(C)(C)C1CCc2sc(-c3nnc(S)o3)cc2C1 (centres undefined)
54 | 133 to 135 | CC(C)CCn1nc(C(=O)O)c2ccccc2c1=O
55 | 149 to 151 | NC(=O)Nc1cccc(F)c1C(=O)O
56 | 146 to 148 | O=C(O)COc1cc(Cl)ccc1Cl
57 | 271 to 273 | Oc1ccccc1-c1nnc2n1CCCCC2
58 | 149 to 151 | O=S(=O)(c1ccc(Cl)nc1)N1CCCC1
59 | 203 to 205 | CC1(c2cc3ccccc3o2)NC(=O)NC1=O (centres undefined)
60 | 97 to 99 | COc1cc(-c2nnc(S)o2)cc(OC)c1OC
61 | 194 to 196 | NC(=O)c1c[nH]cn1
62 | 247 to 249 | CCOC(=O)c1cc2cc(C(=O)O)ccc2[nH]1
63 | 122 to 124 | CC(NC(=O)Oc1ccccc1)C(=O)O (centres undefined)
64 | 175 to 177 | CC1(c2ccc(F)c(F)c2)NC(=O)NC1=O (centres undefined)
65 | 91 to 93 | COC(=O)C1CCN(c2nc3ccccc3s2)CC1
66 | 153 to 155 | Nc1nc(CN2CCCCC2)cs1
67 | 159 to 161 | O=C(O)c1cc(OCc2ccccc2)ccn1
68 | 225 to 227 | CC(=O)NC(C)c1ccc(-c2csc(N)n2)cc1 (centres undefined)
69 | 84 to 86 | COC(=O)c1cc(N)ccc1F

Row | melting point [°C] | Compound
70 | 111 to 113 | O=C1CN(CCOc2ccc(Br)cc2)CCN1
71 | 174 to 176 | Nc1nnc(C(F)F)s1
72 | 90 to 92 | Oc1ccc(Oc2ccc(C(F)(F)F)cn2)cc1
73 | 57 to 59 | N#CCc1ccc(NC2CCCCC2)cc1
74 | 238 to 240 | NC(=O)c1ccccc1OCc1cccc(C(=O)O)c1
75 | 158 to 160 | O=C(O)CSc1nc2ccccc2o1
76 | 144 to 146 | CC(C)c1cc(C(=O)O)c2cnn(C(C)C)c2n1
77 | 99 to 101 | CNc1nc2ccccc2o1
78 | 169 to 171 | O=C(CCl)Nc1ccccc1C(=O)Nc1ccc2c(c1)OCO2
79 | 115 to 117 | O=C(O)C1(c2cccc(F)c2)CC1
80 | 92 to 94 | COc1cccc(-c2nc(C=O)cs2)c1
81 | 136 to 138 | Clc1ccc2c(Cl)ncnc2c1
82 | 309 to 311 | Nc1ccc2nc[nH]c(=O)c2c1
83 | 111 to 113 | NS(=O)(=O)c1ccc(OCCBr)cc1
84 | 137 to 139 | Cc1cc(C)n(Cc2cccc(C(N)=NO)c2)n1
85 | 125 to 127 | Nc1nonc1-c1ccc(F)cc1
86 | 198 to 200 | CN(C)c1ccc(C(=O)O)cc1[N+](=O)[O-]
87 | 162 to 164 | O=C(O)Cc1ccc([N+](=O)[O-])cc1F
88 | 39 to 41 | COc1ccccc1OCCBr
89 | 118 to 120 | Nc1ccc2[nH]c(-c3ccc(F)cc3)nc2c1
90 | 157 to 159 | Nc1cc(Cl)ccc1C(=O)Nc1ccc(Cl)cn1
91 | 153 to 155 | Cc1ccc(C(=O)N(C)C)cc1O
92 | 199 to 201 | O=c1ccc(-c2ccc3c(c2)OCCCO3)n[nH]1

Row | melting point [°C] | Compound
93 | 129 to 131 | Cc1cc(C(=O)O)ncn1
94 | 56 to 58 | ClCc1nc(-c2cc(Br)cs2)no1
95 | 92 to 94 | O=C(CCl)Nc1ccccc1OC(F)F
96 | 114 to 116 | N#Cc1ccc(-n2nccc2N)cc1
97 | 298 to 300 | Oc1ccnc2cc(F)c(F)cc12
98 | 271 to 273 | O=C1Nc2c(Br)ccc(Br)c2C1=O
99 | 181 to 183 | Nc1ccc2c(c1)CCN2C(=O)c1cccnc1
100 | 99 to 101 | CC(C)C(Br)C(=O)NC1CCCC1 (centres undefined)
101 | 105 to 107 | NC(=O)CCc1ccc(F)cc1
102 | 79 to 81 | Cn1ccc(N2CCCC(N)C2=O)n1 (centres undefined)
103 | 52 to 54 | N#CCc1ccc(OCC2CO2)cc1 (centres undefined)
104 | 152 to 154 | COC(=O)c1ccc(CNc2ccc3c[nH]nc3c2)cc1
105 | 79 to 81 | O=C1c2ccccc2C(=O)N1CCCc1nn[nH]n1
106 | 101 to 103 | CC(C)(C)C(=O)c1ccsc1N
107 | 82 to 84 | Clc1nc(CN2CCOCC2)nc2scc(-c3ccccc3)c12
108 | 112 to 114 | COc1ccc(NC(=O)CSCC(=O)O)cc1
109 | 117 to 119 | OC1CCC(c2ccccc2)CC1 (centres undefined)
110 | 179 to 181 | COc1cc(C=O)c([N+](=O)[O-])cc1OCC(=O)O
111 | 154 to 156 | NS(=O)(=O)Cc1cccc2cccnc12
112 | 136 to 138 | COC(=O)c1c[nH]c(CC(C)C)n1
113 | 79 to 81 | Cc1ccc(-n2cc(C=O)c(C(C)(C)C)n2)cc1
114 | 221 to 223 | O=C(O)c1cc2c(cc1[N+](=O)[O-])OCCO2
115 | 282 to 284 | O=C(Cc1ccc(Br)cc1)Nc1ccc(C(=O)O)cc1

Row | melting point [°C] | Compound
116 | 129 to 131 | Clc1cc(NC2CCOc3ccccc32)ncn1 (centres undefined)
117 | 38 to 40 | COCCOc1ccc(Cl)cc1S(=O)(=O)Cl
118 | 70 to 72 | Cc1cc(C)cc(OCCN(C)C(=O)CCl)c1
119 | 151 to 153 | CSc1ccc2cc(CCl)c(Cl)nc2c1
120 | 119 to 121 | CC(C)N(C)S(=O)(=O)c1ccc(N)cc1
121 | 68 to 70 | Cn1ccc(C(=O)c2ccc(F)cc2)n1
122 | 119 to 121 | Cc1ccc(-c2cc(CS(=O)(=O)Cl)on2)cc1
123 | 189 to 191 | COc1ccc2c(c1)C1(CC2)NC(=O)NC1=O (centres undefined)
124 | 157 to 159 | O=C(O)Cc1ccc([N+](=O)[O-])cc1Cl
125 | 207 to 209 | CCCCn1c(N)c(NCc2ccccc2)c(=O)[nH]c1=O
126 | 135 to 137 | CC(C)Oc1ccc([N+](=O)[O-])c(C(=O)O)c1
127 | 89 to 91 | NCc1ccc(-c2ccc3c(c2)CCCO3)cc1
128 | 149 to 151 | Cc1cc(NC(=O)C(C)Cl)ccc1Br (centres undefined)
129 | 139 to 141 | Cc1cc(C)n(-c2ccc(C(N)=NO)cn2)n1
130 | 158 to 165 | NC(=O)Cc1csc(N)n1
131 | 76 to 78 | CCn1c2ccccc2c2cc(CNCCCO)ccc21
132 | 190 to 192 | COc1ccc(C(=O)O)cc1OCCO
133 | 182 to 184 | O=C(O)c1cc(I)cc(C(F)(F)F)c1
134 | 193 to 195 | NC(=O)N1CCC(C(=O)O)CC1
135 | 145 to 152 | O=C(O)C1CCCN(C(=O)c2ccc(Cl)cc2)C1 (centres undefined)
136 | 119 to 121 | Nc1ccc(OC(F)F)c2ncccc12
137 | 34 to 36 | O=[N+]([O-])c1cc(C(F)(F)F)ccc1I

Row | Compound | melting point [°C]
138 | Cc1cc(C2CCCNC2)n[nH]1 (centres undefined) | 104 to 106
139 | O=C1CC(C2CC2)CN1 (centres undefined) | 99 to 101
140 | NCC(O)c1ccccc1C(F)(F)F (centres undefined) | 106 to 108
141 | N#Cc1cc2c([nH]c1=O)CCN(Cc1ccccc1)C2 | 218 to 220
142 | CCC(C)n1nc(C(=O)O)cc1C (centres undefined) | 103 to 105
143 | N#CC(Cl)c1c(F)cccc1Cl (centres undefined) | 49 to 51
144 | O=C(CCl)Nc1nncs1 | 233 to 235

Source: a melting point compilation (Tetko et al.)
